How the values were obtained:
[1] = test system: eIF2α phosphorylation (HeLa cells); assay: Protein analyses on immunoblots, HeLa cells; type: cell-based, human; settings: for eIF2α phosphorylation: 0-10 h
Experimental: (§1) HeLa or MEF cells (90,000 cells/mL) were plated in 12-well plates (1 mL/well). The following day cells were treated as indicated; the medium was removed, fresh medium containing compound added and incubated at 37°C for the times indicated. The time course was performed in reverse order to facilitate collecting all samples at the same time. At the end of treatment cells were washed two times with ice-cold PBS and lysed in 150 μL Laemmli Buffer. Lysates were transferred to 1.5 mL eppendorf tubes, boiled at 95°C for 5 min, sonicated and resolved on Bolt SDS-PAGE 4%–12% Bis-Tris gels (ThermoFisher Scientific). Proteins were transferred to the nitrocellulose membrane using the iBlot 2 system (ThermoFisher Scientific). Membrane was blocked in 5% skimmed milk for 30 min and then probed with primary antibodies followed by incubation with the appropriate horseradish peroxidase-conjugated secondary antibodies (Promega). Proteins were visualized using ECL Prime (GE Healthcare) and imaged in the Chemi-Smart 5000 (Vilber-Lourmat, France) or ChemiDoc Touch (BioRad). Bands were quantified using ImageJ (NIH, USA). The following primary antibodies were used: e-IF2α-P (ThermoFisher Scientific (#44-728G), 1:1,000), e-IF2α (Abcam (#ab5369), 1:1,000), tubulin (Sigma-Aldrich (#T5168), 1:4,000), BiP (BD Biosciences PharMingen (#610978), 1:1,000), ATF4 (Santa Cruz Biotechnology (#sc-200), 1:500), Ppp1r15a (Proteintech (#10449-1-AP), 1:1,000), Ppp1r15b (Proteintech (#14634-1-AP), 1:1,000) and CHOP (ABR Affinity BioReagents (#MA1-250), 1:1,000).

[2] = test system: R15b −/− cells; assay: eIF2α phosphorylation and translation rates in R15b −/− MEF cells; type: cell-based, mouse; settings: 10 μM
Experimental: as §1, with “The following primary antibodies were used: e-IF2α-P (ThermoFisher Scientific (#44-728G), 1:1,000), e-IF2α (Abcam (#ab5369), 1:1,000), tubulin (Sigma-Aldrich (#T5168), 1:4,000), BiP (BD Biosciences PharMingen (#610978), 1:1,000), ATF4 (Santa Cruz Biotechnology (#sc-200), 1:500), Ppp1r15a (Proteintech (#10449-1-AP), 1:1,000), Ppp1r15b (Proteintech (#14634-1-AP), 1:1,000) and CHOP (ABR Affinity BioReagents (#MA1-250), 1:1,000).” left out
HeLa or MEF cells (90,000 cells/mL) were plated in 12-well plates (1 mL/well). […] The gels were then exposed to a Storage Phosphor Screen (GE Healthcare) and analyzed by phosphorimaging using a Typhoon Imager Scanner (GE Healthcare).

[3] = target: T1, R15B (Homo sapiens, UniProt Q5SWA1); assay: Limited trypsin digestion of R15B; settings: R15 3 μM, compound 100 μM, trypsin 5 nM, 5 min, 22°C
T1 construct: cDNAs encoding amino acids 325-636 of R15A and 340-698 of R15B were cloned into pMAL-c5x; made in house; host or cells: E. coli BL21-Gold (DE3) pLysS
Experimental: Reactions were initiated by addition of 5 nM of trypsin from bovine pancreas (Sigma-Aldrich), made up in PBS, and allowed to proceed for 5 min at 22°C, with shaking at 350 rpm. […] Proteins were visualized by staining with InstantBlue Protein Stain (Expedeon).

[4] = target: T2, R15B-PP1c (Homo sapiens, UniProt Q5SWA1); assay: Selective holophosphatase activity assay, eIF2α dephosphorylation by R15B-PP1c; type: biochemical; settings: Raphin1 100 μM, 30°C, 16 hr
T2 construct: cDNAs encoding amino acids 325-636 of R15A and 340-698 of R15B were cloned into pMAL-c5x; made in house; host or cells: E. coli (R15 and eIF2α: BL21-Gold (DE3) pLysS; PP1: BL21/pGro7)
Experimental: The assay was performed as previously described ([Carrara et al., 2017]). Dephosphorylation experiments were carried out in dephosphorylation buffer (50 mM Tris pH 7.4, 1.5 mM EGTA pH 8.0, 2 mM MnCl2), and all proteins were diluted to the appropriate concentration in dephosphorylation buffer. PP1c was diluted to 10 nM, R15s were diluted to 50 nM and P-eIF2α was diluted to 1 μM. Proteins were mixed as appropriate, and Raphin1 at 100 μM or DMSO vehicle control were added. Reactions were incubated at 30°C for 16 hr. 4% SDS-Laemmli sample buffer was added to stop the reactions. Samples were loaded on 4%–12% NuPAGE Bis-Tris gels (ThermoFisher Scientific), diluted 1-fold, and analyzed by immunoblotting using anti-Phospho-eIF2α (Ser51) (Cell Signaling (#9721); […]) and total anti-eIF2α (AbCam (#ab26197); 1:1,000) antibodies.

[5] = test system: wild-type mice; assay: Fear conditioning; type: in vivo, mouse; settings: 2 mg/kg for 3 weeks
Experimental: Morris water maze and the following fear conditioning were performed on C57BL/6J wild-type males aged 2.5 months. Mice were treatment- and test-naive before the treatment started. Treatment with Raphin1 started two weeks before and was continued during the behavioral tests.
Testing was performed in polymodal operant chambers (Coulbourn Instruments, Allentown, PA, USA). Each chamber (18.5 × 18 × 21.5 cm) consisted of aluminum side walls and Plexiglas rear and front (the door) walls. A loudspeaker and a bright light constituted the sources of the cues during conditioning and cue-testing. The general activity of animals was recorded through the infrared cell placed at the ceiling of the chambers and was directly recorded using the Graphic State software (Coulbourn). For conditioning, mice were allowed to acclimate for 4 min, then a light/tone (10 kHz) – Conditioned Stimulus (CS) was presented for 20 s and co-terminated by a mild (1 s, 0.4 mA) footshock – an aversive Unconditioned Stimulus (US). Mice were returned to their home cages 2 min later. Testing was performed 24 hr following conditioning session. Testing for the context was performed in the morning. […] For both context and cue testing the percentage of time spent in the immobile position (% Freezing) was scored as an indicator of fear memory.

[6] = target: PP1c (Homo sapiens, UniProt P36873); assay: PP1c catalytic activity assay (DiFMUP, EnzChek); settings: his-PP1c 30 nM
Sequence of PP1c (P36873 1-322): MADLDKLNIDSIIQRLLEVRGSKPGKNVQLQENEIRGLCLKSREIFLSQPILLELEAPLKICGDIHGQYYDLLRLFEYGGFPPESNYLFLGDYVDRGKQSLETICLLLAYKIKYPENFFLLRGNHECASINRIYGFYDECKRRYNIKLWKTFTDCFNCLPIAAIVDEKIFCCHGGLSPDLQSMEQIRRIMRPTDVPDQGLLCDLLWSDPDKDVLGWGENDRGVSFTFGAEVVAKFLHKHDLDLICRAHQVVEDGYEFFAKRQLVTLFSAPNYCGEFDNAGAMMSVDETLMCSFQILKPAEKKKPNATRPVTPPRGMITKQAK
Experimental: Residual activity of PP1c was measured using the EnzChek Phosphatase Assay Kit (ThermoFisher Scientific) according to the supplier’s instructions, with minor modifications.

T2 sequence (Q5SWA1 340-698): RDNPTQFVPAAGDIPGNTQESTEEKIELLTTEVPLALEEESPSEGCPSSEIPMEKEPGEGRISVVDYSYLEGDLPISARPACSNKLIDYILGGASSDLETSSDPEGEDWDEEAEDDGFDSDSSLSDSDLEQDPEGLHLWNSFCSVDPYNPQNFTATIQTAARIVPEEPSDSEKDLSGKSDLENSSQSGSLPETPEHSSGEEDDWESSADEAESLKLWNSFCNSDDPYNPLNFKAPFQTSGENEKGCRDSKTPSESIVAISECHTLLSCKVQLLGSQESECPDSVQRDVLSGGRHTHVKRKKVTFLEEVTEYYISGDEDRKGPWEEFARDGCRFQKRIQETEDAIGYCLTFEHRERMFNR
T2 sequence (P62136 7-330 partner limits assumed): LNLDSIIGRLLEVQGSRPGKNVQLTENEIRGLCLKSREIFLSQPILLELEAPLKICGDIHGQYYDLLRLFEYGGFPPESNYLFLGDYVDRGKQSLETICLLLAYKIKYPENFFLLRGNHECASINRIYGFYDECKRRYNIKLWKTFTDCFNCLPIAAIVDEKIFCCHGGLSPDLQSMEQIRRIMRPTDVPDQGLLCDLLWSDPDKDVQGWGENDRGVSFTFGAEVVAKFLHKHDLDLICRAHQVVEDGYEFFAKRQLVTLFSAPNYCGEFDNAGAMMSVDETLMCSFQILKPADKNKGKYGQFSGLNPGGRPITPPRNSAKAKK
T1 sequence (Q5SWA1 340-698): as the sequence (Q5SWA1 340-698) above

[H]/N=C(\N)NN=Cc1cccc(Cl)c1Cl [Raphin1, (E)-2-(2,3-dichlorobenzylidene)hydrazine-1-carboximidamide]
ATF4 and R15A induction ([1]; 10 μM): induced | Stress marker BiP ([1]; 10 μM): did not increase | eIF2α phosphorylation ([1]; 20 μM): persistent phosphorylation | eIF2α phosphorylation ([1]; unstressed, 10 μM): rapidly and transiently increased | Measurable effects on eIF2α phosphorylation and translation [2]: abolished | Protease sensitivity of R15B (limited proteolysis, conformational change) [3]: protected | Dephosphorylation of eIF2α by R15B-PP1c [4]: inhibited | Adverse effects on memory, fear-conditioning paradigm [5]: no adverse effects | Inhibition of PP1c (dephosphorylation of difluoro-4-methylumbelliferyl phosphate) [6]: did not inhibit

Source: paper PMC6108835, “Target-Based Discovery of an Inhibitor of the Regulatory Phosphatase PPP1R15B” (Cell, 2018)
